The source of these data is patent publication US20240423988A1, “Improvement of Tumor Immunogenicity by Means of Splicing-Controlling Compound” (Kyoto University, priority 2021, published 2024).

One assay deals with tumor cells. The following applies: cited from earlier work.
The subject of another assay is CD8^+ T cells. Description: IFN-γ ELISpot assay. It is filed as cell-based. The following applies: splenocytes of vaccinated mice co-cultured with peptide-pulsed BMDCs. On the procedure:
The 22 splice-neoantigen candidates and a melanoma antigen peptide, tyrosinase-related protein 2 (TRP2) 180-188, serving as a positive control, were synthesized. […] mice were vaccinated twice with the synthesized peptides in the presence of Poly(I:C) as an adjuvant. Then, splenocytes were prepared from the vaccinated mice and co-cultured with peptide-pulsed bone marrow-derived dendritic cells (BMDCs) for 24 hours, and the activation of CD8^+ T cells was evaluated using an IFN-γ ELISpot assay (FIG. 5-1A).
Eight-week-old female C57BL/6N mice were subcutaneously injected with 100 μg of synthesized peptides (Genscript Japan) and 50 μg of poly(I:C) formulated in PBS (5 peptides/mouse) on days 0 and 7. H2-K^b TRP-2180-188 peptide (MBL International, Woburn, MA) was used as a positive control. Mice were sacrificed 12 days after the initial injection, and splenocytes were isolated. As stimulators, bone marrow-derived dendritic cells (BMDCs) were generated as described previously, with some modifications. Briefly, bone marrow cells were isolated from femurs of the 8-week-old female C57BL/6N mice through centrifugation on day 2. Cells were passed through a 70-um cell strainer and seeded in 10-cm petri dishes with RPMI1640 containing 10% FBS, 100 U/mL P/S, 2 mM L-glutamine, 50 μM 2-ME, and 20 ng/ml Gm-csf (Peprotech, Rocky Hill, NJ). Culture was maintained by replacing half of the medium every 2 or 3 days. On day 12, most of the nonadherent cells had acquired typical dendritic morphology, and these cells were pulsed with peptides (2 μg/ml) for 2 hours at 37° C. ELISpot assay was performed using a Mouse IFN-γ ELISpot BASIC kit (Mabtech AB, Nacka Strand, Sweden) as per the manufacturer's instructions. Freshly isolated splenocytes (5× 10^5 cells) were co-incubated with peptide-pulsed BMDCs (4×10^4 cells) overnight at 37° C. under 5% CO2 conditions in an ELISpot PVDF white plate coated with anti-IFN-γ antibody (clone AN18). Then, IFN-γ secretion was detected using a […] (clone R^4-6A2) and a BCIP/NBT-plus substrate. After leaving the plate to dry, the spot number was counted using a dissection microscope. Spot images were acquired using an ImmunoSpot S6 Ultimate Analyzer (Cellular Technology Limited, Cleveland, OH).

The subject of assay [1] is MC38 cells. Description: Co-culture assay for tumor-killing activity, peptide-pulsed target cells. The following applies: for tumor-killing responses, individual epitopes: MC38 pulsed with individual peptide, hexavalent peptide-reactive effector cells. It is filed as cell-based, murine. From the text: [FIG. 6-1] FIG. 6. Hexavalent vaccination of inducible splice-neoepitopes promotes Compound 1-induced cancer immune responses. A: A schema for the cancer-killing assay. B and C: Representative flow cytometric images showing tumor-killing activity mediated by antigen-elicited effector cells (B) and their quantitative data of annexin V^+/CFSE^+ frequency (C) are indicated (n=3/group). Hexavalent (Kifc1^−, Nf1^−, Acbd4^−, Rfx7^−, Qpct1^−, and Nup153-derived) peptides or an irrelevant Trp2180-188 peptide was used to elicit antigen-reactive effector cells. CFSE-labeled MC38 cells were stimulated with either 0.1% DMSO or hexavalent peptides for 2 hours and then co-cultured with effector cells for 24 hours. Annexin V was used for monitoring early and late apoptotic cell frequencies. *** represents p<0.001. D: For the nontargeting control (NC) or B2M KO clone (n=3/group), annexin V^+/CFSE^+ frequencies in the same experimental condition as (C) are shown. ** represents p<0.01.
[FIG. 7] A: In vitro tumor-killing activity mediated by individual splice-neoantigens. Quantitative data of annexin V^+/CFSE^+ frequencies are shown (n=3/group). CFSE-labeled MC38 cells, with or without IFN-pretreatment, were further stimulated with either 0.1% DMSO, hexavalent peptides, or individual peptides for 2 hours, and then co-cultured with hexavalent peptide-reactive effector cells for 24 hours. Data are shown as the mean±SEM. Experiments were performed at least twice. B: Tumor suppressive effect by hexavalent or individual splice-neoantigen vaccination. Tumor volumes of mice on day 23 are shown. Mice were subcutaneously vaccinated with 100 μg of peptide and 50 μg of Poly(I:C) on days 11 and 18. In groups indicated by (−), 5% DMSO was injected instead of peptide. Compound 1 ([…]) or vehicle control (0.1% DMSO) was intratumorally given once daily. Data are shown as the mean±SEM (n=7/group). Experiments were performed once.
Splenocytes were prepared from mice vaccinated with either hexavalent splice-neoantigens or an irrelevant Tpr2180-188 antigen, and then further stimulated with BMDCs pulsed with the same antigen(s) in the presence of IL-2. Tumor-killing activity was quantified based on the frequency of Annexin V^+/CFSE^+24 hours after co-culture with antigen(s)-elicited effector cells and CFSE-prelabeled target cells. […] As a result, this tumor-killing activity was absent for the B2m KO MC38 cells (FIG. 6-1D).
Splenocytes were prepared from peptide(s)-vaccinated mice inoculated with Poly(I:C) on day 14, as described in the section of “ELISpot assay”. To further elicit antigen-specific CD8^+ T cells, freshly isolated splenocytes were co-cultured with peptide(s)-pulsed bone marrow-derived dendritic cells (BMDCs) in the presence of 10 ng/ml IL-2 (Peprotech) for another 7 days. Culture was maintained by replacing half of the medium every 2 or 3 days. Splenocytes stimulated with BMDCs, as effector cells, were then co-cultured with target cells at an effector target ratio of 5:1 for 24 hours to examine their lytic activity. For the preparation of target cells, in the previous day of co-culture with effector cells, cells were labeled with […] carboxyfluorescein diacetate succinimidyl ester (CFSE; Dojindo) for 10 minutes, and incubated with FBS for additional 10 minutes to stop the labeling reaction. After washing with medium twice, cells were cultured overnight in the presence of 10 ng/ml IFN-γ. The next day, target cells were pulsed with 10 ng/ml peptide(s) for 2 hours prior to co-culture or treated with Compound 1 in the presence of effector cells. After 24 hours of co-culture, cells were stained with annexin V (Biolegend) in an annexin V binding buffer for 15 minutes and subjected to flow cytometry analysis. Effector cell-mediated killing activity was calculated from the frequencies of annexin V^+/CFSEt.

Assay [2] deals with splenocytes (CD8^+ and CD4^+ T cells). Description: Ex vivo splenocyte culture assay (antigen-independent T cell activation). The conditions noted are these: 24 hours, flow cytometry. It is filed as cell-based, mice.
Assay [3] deals with various murine cancer cell lines (LLC, Pan02, WEHI3, CT26, EG7, B16, MC38). Description: RNA-seq analysis of splice-neoantigen producing events in various murine cancer cell lines. It is filed as cell-based. The protocol: [FIG. 5-2] Continuation of FIG. 5. D and E: RT-PCR analysis for splice-neoantigen coding forms (splice-NA forms) in MC38 cells treated with 10 µM Compound 1 or vehicle control (0.1% DMSO) for 6 hours. Actb served as a loading control. * represents p<0.05, ** represents p<0.01, and *** represents p<0.001. F: Splice-neoantigen producing rates calculated from RNA-seq data (n=3 biological replicates) are indicated as the APSI (Compound 1-DMSO). All data are shown as the mean±SEM. All experiments were performed at least twice. Statistical significance was determined using unpaired Student's t-test for (B) and (E).
Then, whether the Compound 1-induced splice-neoantigens are shared across cancer type was examined using murine lung carcinoma LLC, pancreatic ductal adenocarcinoma Pan02, leukemia WEHI3, colorectal adenocarcinoma CT26, lymphoma EG7, and skin melanoma B16 cells.
The effects of Compound 2 on RNA splicing events (splicing alterations) producing the aforementioned six splice-neoantigens in various murine cancer cell lines were investigated through RNA-Seq analysis in the same manner as in FIG. 5-2F, except that Compound 1 was replaced with Compound 2 (FIG. 8).

In assay [4] the test system is MC38 cells. Description: IFN-γ signaling and expression of MHC class I components and PD-L1 in MC38 cells. It is filed as cell-based, murine. The text has this: MHC class I expressed in cancer cells is critical for neoantigen presentation, which is indispensable for CD8^+ T cell-dependent immune surveillance and tumor killing. To investigate whether Compound 1 modulates the neoantigen presentation pathway, first, the effects of Compound 1 on IFN-γ signaling and the expression of MHC class I components, including […] (B2M) and H2-K^b in MC38 cells, were examined because CD8^+ T cell-secreted IFN-γ is a major inducer of MHC class I components. […] In contrast, any changes in the expression of PD-L1 were not detected in host dendritic cells or macrophages. […] However, these alterations were likely not the functional mechanisms through which Compound 1 exerts its antitumor effects (FIGS. 1-2O and 1-2P), as enhanced antitumor effects of Compound 1 were observed when co-administered with αPD-L1.

`CC(C)Oc1ccc(-c2c[nH]cc2CN(C)CCN)cc1` [MS-023]: the “splicing events and splice-neoantigens in tumor cells” value in the assay with tumor cells was “diversely alters splicing events and generates splice-neoantigens”.

With “KQQELFVLL (listed as Mus musculus) [Qpct1, splice-neoantigen peptide derived from altered splicing of Qpctl]”, in the assay on CD8^+ T cells, the “immunogenicity, IFN-γ ELISpot” value was “immunogenic”.

`NS(=O)(=O)c1ccc(S(=O)(=O)Nc2cccc3c(Cl)c[nH]c23)cc1` [Indisulam]: the “splicing events and splice-neoantigens in tumor cells” value in the assay with tumor cells is “diversely alters splicing events and generates splice-neoantigens”.

As to “SLLLLYLQL (listed as Mus musculus) [Rfx7, splice-neoantigen peptide derived from altered splicing of Rfx7]”, the “tumor-killing responses, individual epitopes” value (“tumor-killing responses” for short) in the assay with MC38 cells [1] is “significantly triggered the tumor-killing responses”. Also, in the assay on CD8^+ T cells, the “immunogenicity, IFN-γ ELISpot” value was “immunogenic”.

For the molecule “concanavalin A [concanavalin A (ConA), reference compound]”, in assay [2], the “CD44^+ and CD69^+ marker expressions in CD8^+ and CD4^+ T cells” value is on record as “promoted”.

For the molecule “MALSNKAYV (listed as Mus musculus) [Kifc1, splice-neoantigen peptide derived from altered splicing of Kifc1]”, in the assay with MC38 cells [1], the “tumor-killing responses” value was “significantly triggered the tumor-killing responses”. In addition, the “immunogenicity, IFN-γ ELISpot” value in the assay on CD8^+ T cells is “immunogenic”.

As to “RNRSHIFPL (listed as Mus musculus) [Nf1, splice-neoantigen peptide derived from altered splicing of Nf1]”, in the assay on MC38 cells [1], the “tumor-killing responses” value is listed as “significantly triggered the tumor-killing responses”. Further, the “immunogenicity, IFN-γ ELISpot” value with CD8^+ T cells is “immunogenic”.

“SILGFTMV (listed as Mus musculus) [Acbd4, splice-neoantigen peptide derived from altered splicing of Acbd4]”: in the assay with MC38 cells [1], the “tumor-killing responses” value is recorded as “significantly triggered the tumor-killing responses”. Also, in the assay on CD8^+ T cells, the “immunogenicity, IFN-γ ELISpot” value is reported as “immunogenic”.

As for “Tpr2: melanoma antigen peptide, tyrosinase-related protein 2 (TRP2) 180-188; control antigen (SVYDFFVWL; UniProt P29812 180-188, looked up, fragment) [reference compound]”, the “tumor-killing activity of antigen-elicited effector cells” value in the assay with MC38 cells [1] (MC38 cells presenting six splice-neoepitopes, 24 hours co-culture, Annexin V^+/CFSE^+) is on record as “did not exhibit any response”.

For `N=C1NC(=O)/C(=C/c2ccc3c(c2)CCO3)S1` [Compound 2], the “splicing alterations of the Kifc1 gene producing peptides containing MALSNKAYV” value in assay [3] (MC38 and B16) is on record as “markedly observed”. Moreover, the “splicing alterations of the Rfx7 gene producing peptides containing SLLLLYLQL” value in assay [3] (all the cancer cell lines) is on record as “markedly observed”. Besides, the production of splice-neoantigens result in assay [3] (various murine cancer cell lines, RNA-Seq) was “increases the production of splice-neoantigens”.

For the molecule “SQPLPNKIGF (listed as Mus musculus) [Nup153, splice-neoantigen peptide derived from altered splicing of Nup153]”, in the assay with MC38 cells [1], the “tumor-killing responses” value is recorded as “significantly triggered the tumor-killing responses”. Further, in the assay with CD8^+ T cells, the “immunogenicity, IFN-γ ELISpot” value was “immunogenic”.

B1: IFN-γ: interferon-γ, major inducer of MHC class I components (protein, UniProt P01579 24-161, looked up)
Interferon gamma: QDPYVKEAENLKKYFNAGHSDVADNGTLFLGILKNWKEESDRKIMQSQIVSFYFKLFKNFKDDQSIQKSVETIKEDMNVKFFNSNKKKRDDFEKLTNYSVTDLNVQRKAIHELIQVMAELSPAAKTGKRKRSQMLFRG
Consider B1, for which the “phosphorylation of STAT1 and STAT3 and expression of B2M protein” value with MC38 cells [4] is “robustly induced”.
